In patent US8106054B2, “Crystalline pyridazine compound” (priority 2007, dated 2012):
In brackets after ≈: the same amount, converted by molar mass.

How the values were obtained:
[1] = Phase-1 first-in-human trial, pharmacokinetics; type: in vivo
Source text: A randomized, double-blind, placebo controlled trial was designed to evaluate the safety/tolerability, pharmacokinetics and antiviral activity of single (in Part A) and multiple (in Part B) doses of Compound (1) (oleic acid solution, above) in subjects chronically infected with HCV genotype 1 (GT-1) without decompensated cirrhosis.
In completed Part A, five successive cohorts of 6 subjects were randomized (5:1) to receive single ascending doses of Compound 1 (40, 120, 240, 240-with food, or 480 mg) or placebo. In ongoing Part B, four successive cohorts of 12 subjects are randomized (10:2) to receive multiple ascending doses of Compound 1 (40 mg BID, 120 mg BID, 240 mg QD, 240 mg BID) or placebo, over 8 days.

physchem = type: physicochemical; conditions: pH 2, aqueous buffer
[2] = parameters: species or system human; conditions: in vivo
[3] = tested on: HCV genotype 1 (Con-1/lucneo) replicon; type: cell-based; conditions: 3 days, absence of HSA
Procedure: HCV genotype 1 (Con-1/lucneo) and 1a (H77/neo) replicon cells were incubated with serial dilutions of compound (1) 2′C-methyl adenosine (2′CMeA) or IFNα for 3 days in the absence or presence of 40 mg/mL human serum albumin (HSA).

Row | Compound | mean concentration 24 hours after dosing relative to protein binding adjusted in vitro HCV GT-1 replicon EC50 ([1]; 240 mg fasted single dose) [fold] | increase in systemic exposure with a high fat meal ([1]; single dose 240 mg with food vs fasted) | solubility (physchem) [µg/mL] | tolerability of single doses [2] | EC50 HCV 1-lucneo [3] [IU/mL]
1 | Fc1ccccc1-c1nc2ccn(Cc3ccc(-c4ccc(C(F)(F)F)cc4C(F)(F)F)nn3)cc-2n1 [Compound 1, 5-((6-(2,4-Bis(trifluoromethyl)phenyl]pyridazin-3-yl)methyl)-2-(2-fluorophenyl)-5H-imidazo[4,5-c]pyridine] | ~7 | approximately 2 fold | 458 (≈ 885 µM) | well tolerated, with no serious or treatment-limiting adverse events (AEs) reported | –
2 | IFN-α | – | – | – | – | 2
